Legend:
[1] = Solubility in water (Test Example 1); type: physicochemical; settings: 5% aqueous glucose solution, saline or isotonic
Procedure: (§1) Solubility in 5% aqueous glucose solution was measured.

peroxylipid [2] = experiment: Inhibitory action for formation of peroxylipid (Evaluation Example 1; MDA, thiobarbituric acid method); type: biochemical; settings: rat brain homogenate, 37°C for 60 minutes; test compound 10⁻⁴ M; n=2
Procedure: (§2) Male SD rats of 7-10 week age were anesthetized with pentobarbital and then subjected to dehematization. Thereafter, their brains were enucleated. The brain tissues were homogenized with a phosphate buffer solution with ice-cooling. Each of the 5% homogenates was incubated at 37°C for 60 minutes to form malondialdehyde (MDA). The amount of MDA was determined by measuring the absorbance at 535 nm according to the thiobarbituric acid method. Using this MDA amount (a) and a control value (b) (a MDA amount when no test compound was added), the inhibition (%) for formation of peroxylipid, of test compound was calculated from the following formula. Inhibition (%) for formation of peroxylipid = [(b-a)/b]x100 [formula] Each test compound was added to the homogenate before the incubation.
(§3) Incidentally, the concentration of each test compound was 10⁻⁴ M, and the number of rats used for each test compound was n=2.

Male SD rats [3] = experiment: Inhibitory action for disappearance of enzyme in myocardial cells after ischemia and reperfusion (Evaluation Example 3); type: in vivo, rat; settings: 1.0 mg/kg intravenously; ligation 20 minutes, reperfusion 2 hours; left ventricle; average value ± standard error
Procedure: Male SD rats of 7-12 week age were anesthetized with pentobarbital and subjected to thoracotomy under artificial respiration. The left anterior descending coronary artery of each rat was ligated for 20 minutes and then subjected to reperfusion for 2 hours. Then, the heart of each rat was enucleated and the left ventricle was separated. The left ventricle was homogenized to measure the activity of creatine phosphokinase (CPK) remaining in the ventricle. A test compound was intravenously administered 5 minutes before the obstruction of coronary artery. In Table 15 are shown the differences in CPK activity between non-ischemia territory and ischemia and reperfusion territory of left ventricle, of test compound and control.
In Table 15, CPK activity indicates (average value ± standard error), and n indicates the number of tested rats.

Male SD rats [4] = experiment: Inhibitory action for reperfusion arrhythmia (Evaluation Example 2; coronary artery ligation 5 minutes, reperfusion 10 minutes); type: in vivo, rat; settings: 1.0 mg/kg intravenously 5 minutes before obstruction of coronary artery
Procedure: (§4) Male SD rats of 8-12 week age were anesthetized with pentobarbital and subjected to thoracotomy under artificial respiration. The left anterior descending coronary artery of each rat was ligated for 5 minutes and then subjected to reperfusion for 10 minutes. An electrocardiograph in standard bipolar limb lead II was recorded for each rat to examine the occurrence of ventricular arrhythmia. A test compound was intravenously administered 5 minutes before the obstruction of coronary artery. For comparison, the same evaluation was conducted also on the 5-(4-methoxy-3-sulfophenyl)-3H-1,2-dithiole-3-thione sodium salt described in Eur. J. Med. Chem. 15, 405 (1980). [drawing 93]

peroxylipid [5] = experiment: Inhibitory action for formation of peroxylipid (Evaluation Example 4; MDA, thiobarbituric acid method); type: biochemical; settings: rat brain homogenate, 37°C for 60 minutes; test compound 10⁻⁴ M; n=2
Procedure: as §2, §3

Male SD rats [6] = experiment: Inhibitory action of reperfusion arrhythmia (Evaluation Example 5; coronary artery ligation 5 minutes, reperfusion 10 minutes); type: in vivo, rat; settings: 1.0 mg/kg intravenously 5 minutes before obstruction of coronary artery
Procedure: as §4, with “arrhythmia. Each” for “arrhythmia. A”, “[drawing 95]” for “[drawing 93]”

Male SD rats [7] = experiment: Inhibitory action for disappearance of enzyme in myocardial cells after ischemia and reperfusion (Evaluation Example 6); type: in vivo, rat; settings: for Mortality (%) / CPK activity (U/mg protein) (Non-ischemia territory)-(ischemia and reperfusion territory): 1.0 mg/kg intravenously, ligation 20 minutes, reperfusion 2 hours; for CPK activity (U/mg protein) (Non-ischemia territory)-(ischemia and reperfusion territory): left ventricle, average value ± standard error
Procedure: Male SD rats of 7-12 week age were anesthetized with pentobarbital and subjected to thoracotomy under artificial respiration. The left anterior descending coronary artery of each rat was ligated for 20 minutes and then subjected to reperfusion for 2 hours. Then, the heart of each rat was enucleated and the left ventricle was separated. The left ventricle was homogenized to measure the activity of creatine phosphokinase (CPK) remaining in the ventricle. Each test compound was intravenously administered 5 minutes before the obstruction of coronary artery. For comparison, the same evaluation was conducted also on the 4-(4-methoxy-3-sulfophenyl)-5-phenyl-3H-1,2-dithiole-3-thione sodium salt described in Bull. […] Chim. […] In Table 18 are shown the differences in CPK activity between non-ischemia territory and ischemia and reperfusion territory of left ventricle, of test compounds and control.
In Table 18, CPK activity indicates (average value ± standard error), and n indicates the number of tested rats.

[8] = Solubility in water (Test Example 2); type: physicochemical; settings: 5% aqueous glucose solution, saline or isotonic
Procedure: as §1

| Structure (SMILES) | solubility [1] | Inhibition (%) (peroxylipid [2]) | Inhibition (%) (peroxylipid [5]) | Mortality (%) (Male SD rats [6]) | VF incidence (VF rats)/(tested rats) (%) (Male SD rats [6]) | Mortality (%) (Male SD rats [7]) | CPK activity (U/mg protein) (Non-ischemia territory)-(ischemia and reperfusion territory) (Male SD rats [7]) | other results |
| --- | --- | --- | --- | --- | --- | --- | --- | --- |
| COc1cc2c(cc1S(=O)(=O)[O-])OCc1c-2ssc1=S.[Na+] [Production Example 12, 8-methoxy-7-sulfo-3H,4H-benzopyrano-[4,3-c]-1,2-dithiole-3-thione sodium salt] | ≥ 10000 µg/mL | 100% | – | – | – | – | – | – |
| CCOc1cc2c(cc1S(=O)(=O)[O-])-c1ssc(=S)c1CC2.[Na+] [Production Example 5, 4,5-dihydro-7-ethoxy-8-sulfo-3H-naphtho-[1,2-c]-1,2-dithiol-3-thione sodium salt] | ≥ 10000 µg/mL | 100% | – | – | – | – | – | – |
| COc1cc2c(cc1S(=O)(=O)[O-])-c1ssc(=S)c1CC2.[Na+] [Production Example 4, 4,5-dihydro-7-methoxy-8-sulfo-3H-naphtho[1,2-c]-1,2-dithiole-3-thione sodium salt] | ≥ 10000 µg/mL | 100% | – | – | – | – | – | CPK activity (U/mg protein) (Non-ischemia territory)-(ischemia and reperfusion territory) (Male SD rats [3]): 1.36 ± 0.34 (n=7) U/mg protein; Mortality (%) (Male SD rats [4]): 2/5 (40.0) %; VF incidence (VF rats)/(tested rats) (%) (Male SD rats [4]): 2/5 (40.0) % |
| COc1ccc(-c2c(-c3ccc(C)cc3)ssc2=S)cc1S(=O)(=O)[O-].[Na+] [Production Example 34, 4-(4-methoxy-3-sulfophenyl)-5-(p-tolyl)-3H-1,2-dithiole-3-thione sodium salt] | – | – | 100% | 2/7 (28.6) % | 3/7 (42.9) % | 40.0% | 0.81 ± 0.43 (n=10) U/mg protein | solubility [8]: ≥ 10000 µg/mL |
| COc1cc2c(cc1S(=O)(=O)[O-])CCc1c-2ssc1=S.[Na+] [Production Example 3, 4,5-dihydro-8-methoxy-7-sulfo-3H-naphtho-[1,2-c]-1,2-dithiole-3-thione sodium salt] | ≥ 10000 µg/mL | 100% | – | – | – | – | – | – |
| CCCCCCc1ssc(=S)c1Cc1ccc(OC)c(S(=O)(=O)[O-])c1.[Na+] [Production Example 26, 5-hexyl-4-(4-methoxy-3-sulfobenzyl)-3H-1,2-dithiole-3-thione sodium salt] | – | – | 100% | 2/6 (33.3) % | 3/6 (50.0) % | 33.3% | 0.70 ± 0.23 (n=9) U/mg protein | solubility [8]: ≥ 10000 µg/mL |
| O=S(=O)([O-])c1ccc(Cc2c(-c3ccccc3)ssc2=S)cc1.[Na+] [Production Example 39, 5-phenyl-4-(4-sulfobenzyl)-3H-1,2-dithiole-3-thione sodium salt] | – | – | 100% | 0/4 (0.0) % | 1/4 (25.0) % | 12.5% | 0.84 ± 0.18 (n=8) U/mg protein | – |
| COc1ccc(-c2c(-c3ccccc3)ssc2=S)cc1S(=O)(=O)[O-].[Na+] [Compound in literature, 4-(4-methoxy-3-sulfophenyl)-5-phenyl-3H-1,2-dithiole-3-thione sodium salt, reference compound] | – | – | – | – | – | – | – | effect on disappearance of creatine phosphokinase from myocardial cells and on rat mortality (Male SD rats [7]; result in words, versus control): no significant effect |
| O=S(=O)([O-])c1ccc2c(c1)-c1ssc(=S)c1CO2.[Na+] [Production Example 13, 8-sulfo-3H,4H-benzopyrano[4,3-c]-1,2-dithiole-3-thione sodium salt] | ≥ 10000 µg/mL | 100% | – | – | – | – | – | – |

Reference: patent EP0641792A1, “1,2-Dithiole derivatives and therapeutic agents containing them” (MITSUI TOATSU CHEMICALS, Inc., priority 1993, dated 1995)
